Results: patent publication US6914045B2, “Glycopeptide antibiotics” (Wyeth Holdings Corporation, priority 2001, dated 2005)
Numbered stars: 1 amine (or outer) side, 2 acyl side, 3 side chain; on linkers, the order of the positions; unused ones are H or OH. Square brackets hold non-standard residues; d marks the D form. Peptide text beside a SMILES is read from it. ξ: configuration not given here. X1 = N=C1NCC(C(O)C(N[*:1])C(=O)[*:2])N1C1OC(CO)C(O)C(O)C1O; ξEnduracididine(βξ-OH,4'ξ) = N=C1NCC(C(O)C(N)C(=O)O)N1; Tyr(3,5-Br2) = N[CH](Cc1cc(Br)c(O)c(Br)c1)C(=O)O; ξPhe(βξ-Me) = CC(c1ccccc1)C(N)C(=O)O

What was measured:
Assay in all cases: in vitro antibacterial evaluation, MIC by broth dilution
Assay type in all cases: cell-based
Escherichia coli = settings: 18 hours at 35° C.
Enterococcus sp. = settings: broth dilution, 18 hours at 35° C.
Procedure, shortened: (§1)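 MIC = lowest antibiotic concentration preventing visible growth; inoculum 5×10^5 CFU/mL; drug range 64-0.06 μg/mL; Muller-Hinton II […]; NCCLS M7-A2 guidance.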

Streptococcus sp. = settings: broth dilution, 18 hours at 35° C.
Procedure, shortened: as §1

Staphylococcus sp. = settings: broth dilution, 18 hours at 35° C.; for MIC Staphylococcus aureus (ATCC 29213): strain ATCC 29213; for MIC Staphylococcus aureus (GC 1131): strain GC 1131; for MIC Staphylococcus aureus (GC 4541): strain GC 4541; for MIC Staphylococcus aureus (GC 4542): strain GC 4542; for MIC Staphylococcus aureus-SMITH (GC 4543): strain GC 4543; for MIC Staphylococcus aureus (GC 4544): strain GC 4544; for MIC Staphylococcus aureus (GC 4545): strain GC 4545; for MIC Staphylococcus haemolyticus (GC 4546): strain GC 4546; for MIC Coagulase Negative Staphylococcus (GC 4547): strain GC 4547; for MIC Coagulase Negative Staphylococcus (GC 4548): strain GC 4548; for MIC Coagulase Negative Staphylococcus (GC 4549): strain GC 4549; for MIC Coagulase Negative Staphylococcus (GC 4551): strain GC 4551
Procedure, shortened: as §1

[1] = inoculum 5×10^5 CFU/mL, strain ATCC 29212
[2] = inoculum 5×10^5 CFU/mL, strain GC 2242
[3] = inoculum 5×10^5 CFU/mL, strain GC 2243
[4] = inoculum 5×10^5 CFU/mL, strain GC 4556
[5] = inoculum 5×10^5 CFU/mL, strain GC 4558
[6] = inoculum 5×10^5 CFU/mL, strain GC 6189
[7] = inoculum 5×10^5 CFU/mL, strain ATCC 6301
[8] = inoculum 5×10^5 CFU/mL, strain GC 1894

CC(c1ccccc1)C1NC(=O)CNC(=O)C(CO)NC(=O)C(C(O)C2CNC(=N)N2C2OC(CO)C(O)C(O)C2O)NC(=O)C(C(O)C2CNC(=N)N2)NC(=O)C(Cc2ccc(OC3OC(CO)C(OC4OC5COC6(OC5C(O)C4O)C(C)CCCC6C)C(O)C3O)cc2)NC1=O (stereo not shown) [Example 206]
0.5 µg/mL: MIC Staphylococcus haemolyticus (GC 4546) (Staphylococcus sp.) | MIC Coagulase Negative Staphylococcus (GC 4548) (Staphylococcus sp.) | MIC Coagulase Negative Staphylococcus (GC 4549) (Staphylococcus sp.)
<0.12 µg/mL: MIC Streptococcus pneumoniae (ATCC 6301) (Streptococcus sp.) | MIC Streptococcus pneumoniae (GC 1894) (Streptococcus sp.) | MIC Streptococcus pneumoniae (GC 4565) (Streptococcus sp.) | MIC Streptococcus pneumoniae (ATCC 6301) (Streptococcus sp.; [7]) | MIC Streptococcus pneumoniae (GC 1894) (Streptococcus sp.; [8]) | MIC Streptococcus pneumoniae (GC 4565) (Streptococcus sp.; inoculum 5×10^5 CFU/mL, strain GC 4565)
32 µg/mL: MIC Escherichia coli (ATCC 25922) (Escherichia coli) | MIC Escherichia coli (GC 4559) (Escherichia coli)
1 µg/mL: MIC Escherichia coli (GC 4560) (Escherichia coli) | MIC Enterococcus faecalis (ATCC 29212) (Enterococcus sp.) | MIC Enterococcus faecalis (GC 3059) (Enterococcus sp.) | MIC Enterococcus faecalis (GC 6189) (Enterococcus sp.) | MIC Enterococcus faecium (GC 4556) (Enterococcus sp.) | MIC Enterococcus faecalis (ATCC 29212) (Enterococcus sp.; [1]) | MIC Enterococcus faecalis (GC 3059) (Enterococcus sp.; inoculum 5×10^5 CFU/mL, strain GC 3059) | MIC Enterococcus faecium (GC 4556) (Enterococcus sp.; [4]) | MIC Enterococcus faecalis (GC 6189) (Enterococcus sp.; [6]) | MIC Streptococcus pyogenes (GC 4563) (Streptococcus sp.) | MIC Streptococcus pyogenes (GC 4563) (Streptococcus sp.; inoculum 5×10^5 CFU/mL, strain GC 4563) | MIC Staphylococcus aureus (ATCC 29213) (Staphylococcus sp.) | MIC Staphylococcus aureus (GC 1131) (Staphylococcus sp.) | MIC Staphylococcus aureus (GC 3051) (Staphylococcus sp.; strain GC 3051) | MIC Staphylococcus aureus (GC 3053) (Staphylococcus sp.; strain GC 3053) | MIC Staphylococcus aureus (GC 4541) (Staphylococcus sp.) | MIC Staphylococcus aureus (GC 4542) (Staphylococcus sp.) | MIC Staphylococcus aureus-SMITH (GC 4543) (Staphylococcus sp.) | MIC Staphylococcus aureus (GC 4544) (Staphylococcus sp.) | MIC Staphylococcus aureus (GC 4545) (Staphylococcus sp.) | MIC Coagulase Negative Staphylococcus (GC 4547) (Staphylococcus sp.) | MIC Coagulase Negative Staphylococcus (GC 4551) (Staphylococcus sp.)
2 µg/mL: MIC Enterococcus avium (GC 4558) (Enterococcus sp.) | MIC Enterococcus faecalis (GC 2242) (Enterococcus sp.) | MIC Enterococcus faecalis (GC 2691) (Enterococcus sp.) | MIC Enterococcus faecalis (GC 4552) (Enterococcus sp.) | MIC Enterococcus faecalis (GC 4553) (Enterococcus sp.) | MIC Enterococcus faecalis (GC 4554) (Enterococcus sp.) | MIC Enterococcus faecium (GC 2243) (Enterococcus sp.) | MIC Enterococcus faecium (GC 4557) (Enterococcus sp.) | MIC Enterococcus faecalis (GC 2242) (Enterococcus sp.; [2]) | MIC Enterococcus faecium (GC 2243) (Enterococcus sp.; [3]) | MIC Enterococcus faecalis (GC 2691) (Enterococcus sp.; inoculum 5×10^5 CFU/mL, strain GC 2691) | MIC Enterococcus faecalis (GC 4552) (Enterococcus sp.; inoculum 5×10^5 CFU/mL, strain GC 4552) | MIC Enterococcus faecalis (GC 4553) (Enterococcus sp.; inoculum 5×10^5 CFU/mL, strain GC 4553) | MIC Enterococcus faecalis (GC 4554) (Enterococcus sp.; inoculum 5×10^5 CFU/mL, strain GC 4554) | MIC Enterococcus faecium (GC 4557) (Enterococcus sp.; inoculum 5×10^5 CFU/mL, strain GC 4557) | MIC Enterococcus avium (GC 4558) (Enterococcus sp.; [5])
0.25 µg/mL: MIC Streptococcus agalactiae (GC 4564) (Streptococcus sp.) | MIC Streptococcus agalactiae (GC 4564) (Streptococcus sp.; inoculum 5×10^5 CFU/mL, strain GC 4564)

CC(c1ccccc1)C1NC(=O)CNC(=O)C(CO)NC(=O)C(C(O)C2CNC(=N)N2C2OC(CO)C(O)C(O)C2O)NC(=O)C(C(O)C2CNC(=N)N2)NC(=O)C(Cc2ccc(OC3OC(CO)C(OC4OC5COC6(CCCCCCCCCCC6)OC5C(O)C4O)C(O)C3O)cc2)NC1=O (stereo not shown) [Example 209]
4 µg/mL: MIC Escherichia coli (GC 4560) (Escherichia coli) | MIC Enterococcus avium (GC 4558) (Enterococcus sp.) | MIC Enterococcus faecalis (ATCC 29212) (Enterococcus sp.) | MIC Enterococcus faecalis (GC 2242) (Enterococcus sp.) | MIC Enterococcus faecium (GC 4556) (Enterococcus sp.) | MIC Enterococcus faecalis (ATCC 29212) (Enterococcus sp.; [1]) | MIC Enterococcus faecalis (GC 2242) (Enterococcus sp.; [2]) | MIC Enterococcus faecium (GC 4556) (Enterococcus sp.; [4]) | MIC Enterococcus avium (GC 4558) (Enterococcus sp.; [5]) | MIC Staphylococcus aureus (ATCC 29213) (Staphylococcus sp.) | MIC Coagulase Negative Staphylococcus (GC 4547) (Staphylococcus sp.)
<0.06 µg/mL: MIC Streptococcus pneumoniae (ATCC 6301) (Streptococcus sp.) | MIC Streptococcus pneumoniae (GC 1894) (Streptococcus sp.) | MIC Streptococcus pneumoniae (ATCC 6301) (Streptococcus sp.; [7]) | MIC Streptococcus pneumoniae (GC 1894) (Streptococcus sp.; [8])
2 µg/mL: MIC Staphylococcus aureus (GC 1131) (Staphylococcus sp.) | MIC Staphylococcus aureus (GC 4541) (Staphylococcus sp.) | MIC Coagulase Negative Staphylococcus (GC 6257) (Staphylococcus sp.; strain GC 6257)
1 µg/mL: MIC Enterococcus faecalis (GC 6189) (Enterococcus sp.) | MIC Enterococcus faecium (GC 2243) (Enterococcus sp.) | MIC Enterococcus faecium (GC 2243) (Enterococcus sp.; [3]) | MIC Enterococcus faecalis (GC 6189) (Enterococcus sp.; [6]) | MIC Staphylococcus aureus-SMITH (GC 4543) (Staphylococcus sp.) | MIC Coagulase Negative Staphylococcus (GC 4548) (Staphylococcus sp.) | MIC Coagulase Negative Staphylococcus (GC 4549) (Staphylococcus sp.)
>64 µg/mL: MIC Escherichia coli (GC 4559) (Escherichia coli)
64 µg/mL: MIC Escherichia coli (ATCC 25922) (Escherichia coli)

CC(c1ccccc1)C1NC(=O)CNC(=O)C(CO)NC(=O)C(C(O)C2CNC(=N)N2C2OC(CO)C(O)C(O)C2O)NC(=O)C(C(O)C2CNC(=N)N2)NC(=O)C(Cc2cc(Br)c(O)c(Br)c2)NC1=O (stereo not drawn) [Example 3, Cyclo[glycyl-β-methylphenylalanyl-3,5-dibromotyrosyl-3-(2-iminoimidazolidin-4-yl)seryl-3-(3-hexopyranosyl-2-iminoimidazolidin-4-yl)serylseryl]] (cyclo(G[ξPhe(βξ-Me)][Tyr(3,5-Br2)][ξEnduracididine(βξ-OH,4'ξ)][X1]S); configuration not given here)
128 µg/mL: MIC Coagulase Negative Staphylococcus (GC 4549) (Staphylococcus sp.) | MIC Coagulase Negative Staphylococcus (ID-3941) (Staphylococcus sp.; strain ID-3941)
>128 µg/mL: MIC Escherichia coli (ATCC 25922) (Escherichia coli; strain ATCC 25922, broth dilution) | MIC Escherichia coli (GC 4559) (Escherichia coli; strain GC 4559, broth dilution) | MIC Enterococcus faecalis (ATCC 29212) (Enterococcus sp.; strain ATCC 29212) | MIC Enterococcus faecalis (GC 2242) (Enterococcus sp.; strain GC 2242) | MIC Enterococcus faecium (GC 2243) (Enterococcus sp.; strain GC 2243) | MIC Enterococcus faecalis (GC 4552) (Enterococcus sp.; strain GC 4552) | MIC Enterococcus faecalis (GC 4553) (Enterococcus sp.; strain GC 4553) | MIC Enterococcus faecalis (GC 4554) (Enterococcus sp.; strain GC 4554) | MIC Enterococcus faecium (GC 4556) (Enterococcus sp.; strain GC 4556) | MIC Enterococcus faecium (GC 4557) (Enterococcus sp.; strain GC 4557) | MIC Enterococcus avium (GC 4558) (Enterococcus sp.; strain GC 4558) | MIC Streptococcus agalactiae (GC 4564) (Streptococcus sp.; strain GC 4564) | MIC Streptococcus pneumoniae (GC 4565) (Streptococcus sp.; strain GC 4565) | MIC Streptococcus pyogenes (ID-3187) (Streptococcus sp.; strain ID-3187) | MIC Staphylococcus aureus (ATCC 29213) (Staphylococcus sp.) | MIC Staphylococcus aureus (GC 1131) (Staphylococcus sp.) | MIC Staphylococcus aureus (GC 4541) (Staphylococcus sp.) | MIC Staphylococcus aureus (GC 4542) (Staphylococcus sp.) | MIC Staphylococcus aureus-SMITH (GC 4543) (Staphylococcus sp.) | MIC Staphylococcus aureus (GC 4544) (Staphylococcus sp.) | MIC Staphylococcus aureus (GC 4545) (Staphylococcus sp.) | MIC Staphylococcus haemolyticus (GC 4546) (Staphylococcus sp.) | MIC Coagulase Negative Staphylococcus (GC 4547) (Staphylococcus sp.) | MIC Coagulase Negative Staphylococcus (GC 4548) (Staphylococcus sp.) | MIC Coagulase Negative Staphylococcus (GC 4551) (Staphylococcus sp.)
64 µg/mL: MIC Escherichia coli (GC 4560) (Escherichia coli; strain GC 4560, broth dilution)
